Data set [1] has as its system liver. As to the kind of experiment: Liver regeneration after partial hepatectomy, C57BL/6J mice. In kind it is in vivo. Conditions: 5 mg/kg IP bid, one mouse each.
A short description of data set [2]: Survival of lethally irradiated mice after bone marrow transplant (30 days). Format: in vivo, mouse. Conditions: 5 mg/kg IP bid. From the text: A matched control cohort received injections with vehicle only. On day one mice received an infusion of donor marrow at doses of 100,000 cells; 200,000 cells; or 500,000 cells. […] Among mice receiving 200,000 donor cells, all control mice were dead by day 12.

The subject of data set [3] is bone marrow. The data set is described as follows: Competitive bone marrow transplant chimerism (CD45.2 donor treated). In kind it is in vivo, mouse. Conditions: donor 5 mg/kg IP daily for 3 doses; weeks 12 and 16. How it is done:
On day 3 mice were sacrificed, marrow flushed and mixed at a 1:1 ratio with vehicle treated CD45.1 marrow. 2 million whole BM cells were injected into the tail vein of lethally irradiated CD45.1 mice and percent chimerism measured via flow cytometry at weeks 8, 12, 16.

The subject of data set [4] is colon. The data set is described as follows: Dextran sodium sulfate (DSS) induced colitis in FVB mice. In kind it is in vivo, mouse. Conditions: 22 days of study.
Data set [5] has as its system cell culture. As to the kind of experiment: Toxicity: concentration needed to decrease cell numbers in a cell culture assay. Format: cell-based. The protocol: Time to inhibition refers to the time needed to inhibit the generation of NADH by 15-PGDH from the moment with drug is added into the reaction mix. Delta Tm refers to the shift in melting temperature of recombinant 15-PGDH in the presence of drug (with cofactor NADH also present). Concentration of Full Cell Line Reporter Induction refers to the concentration of drug that needs to be added to reporter cell line to achieve maximal induction of the 15-PGDH-luciferase gene fusion reporter cassette, as measured by luciferase assays. Hepatocyte stability refers to the half-life of compound in the presence of hepatocytes in culture. Toxicity refers to the concentration of compound needed to decrease cell numbers in a cell culture assay.

The test system of data set [6] is A549 cells. The data set is described as follows: PGE2 levels in medium of IL1-beta stimulated A549 cells. Format: cell-based.
In data set [7] the test system is 15-PGDH protein. The data set is described as follows: Western blot of 15-PGDH protein levels in treated cell lines. Format: cell-based. Conditions: […] compound for 48 hours.

As for `CCCC[S+]([O-])c1sc2nc(-c3cccs3)cc(-c3ccccc3)c2c1N` (stereo not shown) [SW033291, 2-(butylsulfinyl)-4-phenyl-6-(thiophen-2-yl)thieno[2,3-b]pyridin-3-amine], the “serum ALT levels versus control” value in data set [1] is “lower”. In addition, in data set [2] (100,000 donor cells), the “median survival versus control” value is “approximate doubling of median survival”. In addition, the “survival at 30 days” value in data set [2] (500,000 donor cells) was “all survived”. The “percent blood chimerism of CD45.2 marked cells” value in data set [3] was “significantly increased”. Besides, the “change from baseline weight versus control” value in data set [4] is “greater weight at all time points”. The compound also showed a Toxicity in data set [5] of over 10 µM. Moreover, the “rank of PGE2 level in medium” value in data set [6] (100 nM concentration of drug) was “next highest level of PGE2”. Besides, the “PGE2 level in medium, reflecting 15-PGDH activity” value in data set [6] (IL1-beta 23 hours, compound added for last 5 hours) was “clear inhibition of 15-PGDH activity”. Moreover, the “highest PGE2 level achieved in medium” value in data set [6] (IL-1β 16 h, compound 8 h) is 3000 pg/mL. Moreover, the “levels of 15-PGDH protein (western blot)” value in data set [7] is recorded as “increase levels of 15-PGDH protein”.

The values are drawn from US10869871B2, “Compositions and methods of modulating short-chain dehydrogenase activity” (CASE WESTERN RESERVE UNIVERSITY, priority 2013, dated 2020).
